Measurements reported in ChEMBL document CHEMBL4842392, “Targeting KRAS Mutant Protein Inhibitor for Potential Treatment in Cancer” (ACS Med Chem Lett, 2021).
Several values for one entry are separate records, joined by “and”; a condition that tells them apart may be missing. Identical values can stand only once.

Tests used:
GTPase KRas [1] = target: T1, GTPase KRas (Homo sapiens, UniProt P01116, G12C); test: Inhibition of GDP-loaded His-tagged KRAS G12C mutant (2 to 182 residues) (unknown origin) assessed as inhibition of SOS1-catalyzed nucleotide exchange preincubated for 1 hr followed by SOS1 addition measured after 1 hr by TR-FRET assay
GTPase KRas [2] = target: T1, GTPase KRas; test: Inhibition of KRAS G12C mutant in human NCI-H358 cells assessed as reduction in ERK phosphorylation incubated for 2 hrs by HTRF assay; format: cell-based
NCI-H358 = test: Antiproliferative activity against human NCI-H358 cells assessed as inhibition of cell proliferation incubated for 6 days by CCK8 assay; format: functional, cell-based
[3] = Oral bioavailability in Beagle dog at 10 mg/kg measured up to 24 hrs by LC-MS analysis; format: ADME, organism-based, Canis lupus familiaris; conditions: in vivo

SMILES	IC50 (GTPase KRas [1])	IC50 (GTPase KRas [2])	IC50 (NCI-H358; Homo sapiens, NCI-H358, 144 h) [nM]	IC50 (NCI-H358; nci-h358) [nM]	F ([3]; 10 mg/kg, 24 h)	bioavailability ([3]; beagle) [%]
C=CC(=O)N1CCN(c2c(C#N)c(=O)n(-c3c(C(C)C)ncnc3C(C)C)c3nc(-c4c(N)c(Cl)cc(Cl)c4F)c(Cl)cc23)CC1	4.74 nM	18.5 nM	32			
C=CC(=O)N1CCN(c2c(C#N)c(=O)n(-c3c(C)ccnc3C(C)C)c3nc(-c4c(N)c(Cl)cc(Cl)c4F)c(Cl)cc23)C[C@@H]1CC#N	6.66 nM	12.3 nM				
C=CC(=O)N1CCN(c2c(C#N)c(=O)n(-c3c(C)ccnc3C(C)C)c3nc(-c4c(N)c(Cl)cc(Cl)c4F)c(Cl)cc23)CC1	1.95 nM and 1.54 nM	10.4 nM and 11.7 nM	27.6	14.5	98.5% and 63.1%	
C=CC(=O)N1CCN(c2c(C#N)c(=O)n(-c3c(C(C)C)ncnc3C(C)C)c3nc(-c4c(N)cccc4F)c(Cl)cc23)CC1		20.1 nM				
C=CC(=O)N1CCN(c2c(C#N)c(=O)n(-c3c(C)ccnc3C(C)C)c3nc(-c4c(N)c(Cl)cc(Cl)c4F)c(Cl)cc23)CC1CC#N (centres undefined)	5.19 nM	14.9 nM	35.6			
C=CC(=O)N1CCN(c2c(C#N)c(=O)n(-c3c(C)ccnc3C(C)C)c3nc(-c4c(N)c(Cl)cc(Cl)c4F)c(Cl)cc23)C[C@H]1C	2.54 nM	28.8 nM	25.4			70.3
C=CC(=O)N1[C@H](C)CN(c2c(C#N)c(=O)n(-c3c(C)ccnc3C(C)C)c3nc(-c4c(N)c(Cl)cc(Cl)c4F)c(Cl)cc23)C[C@@H]1C	2.83 nM	38.1 nM	17.5			
C=CC(=O)N1CCN(c2c(C#N)c(=O)n(-c3c(C)ccnc3C(C)C)c3nc(-c4ccccc4F)c(Cl)cc23)CC1	4.4 nM	29.9 nM	52.1			
